{
  "source": "patent US9596859B2",
  "about": "“Emulsifiable concentrate for a phytosanitary composition, phytosanitary composition and phytosanitary film” (Total Marketing Services, priority 2009, dated 2017)",
  "test_system": "Aonidiella aurantii",
  "test": "Insecticidal efficacy of emulsions sprayed on citrus groves (oranges)",
  "conditions": "concentration 0.151/hl",
  "protocol": "Samples of products to be tested on citrus groves (oranges) are prepared. The reference R corresponds to an untreated citrus plot.\nEmulsions according to the invention are used, obtained from X6, at 3% in a mixture of hydrocarbons as described in Example 1 for forming the concentrate. This concentrate is mixed at concentrations of 1 and 2% in water, then emulsified. The citrus groves are sprayed at a rate of 1200 L/ha. The efficacy of these emulsions is compared to that of an emulsion of the prior art T1, as described hereinafter and to a chemical reference product corresponding to the use of a synthetic pesticide, here Chlorpyrifos, reference T2.\nFor the emulsion T1, the concentrate is prepared using 1.4% ethoxylated C12-C14 alcohol and 1.6% ethoxylated C13 alcohol acid phosphate in the same mixture of hydrocarbons. As previously, this concentrate is mixed at concentrations of 1 and 2% in water then emulsified. The resulting emulsions are applied in an identical manner onto citrus.\nThe efficacy of these emulsions in preventing harmful insect activity is then evaluated, by comparison with the reference products and the prior art. To this end, a count is undertaken of the number of insects present at the time of application of the emulsions on the reference, and the number of insects having withstood the treatment after 20 days. The efficacy is measured according to the Abbott formula based on the number of live insects, the number of dead insects and the % of citrus infected (more than 3 insects per fruit).",
  "data": [
    {"smiles": "CCOP(=S)(OCC)Oc1nc(Cl)c(Cl)cc1Cl", "note": "[Concentrate T2, Chlorpyrifos]", "values": [
      {"measurement": "% Efficacy (Based on mortality)", "setting": "Abbott formula, t + 20 days", "result": 83.3, "unit": "%"},
      {"measurement": "% Efficacy (Based on the number of live individuals)", "setting": "Abbott formula, t + 20 days", "result": 89.9, "unit": "%"},
      {"measurement": "% mortality", "setting": "t + 20 days, citrus", "result": 88.0, "unit": "%"},
      {"measurement": "Number of dead individuals", "setting": "t + 20 days, citrus", "result": 172.0},
      {"measurement": "Number of live individuals", "setting": "t + 20 days, citrus", "result": 23.5},
      {"measurement": "% fruits infected", "setting": "t + 20 days, infected = more than 3 insects per fruit", "result": 7.8, "unit": "%"},
      {"measurement": "Number of live individuals", "setting": "t = 0 (at application), citrus", "result": 216.5}
    ]}
  ]
}
